Patent US20240067693A1, “POLYPEPTIDES AND USES THEREOF” (MEDIMMUNE LIMITED, priority 2020, published 2024)
Numbered stars: 1 amine (or outer) side, 2 acyl side, 3 side chain; on linkers, the order of the positions; unused ones are H or OH. Bridge positions count the residues as written; N and C are the ends. Square brackets hold non-standard residues; d marks the D form. Side chains are listed from the residue outwards. Peptide text beside a SMILES is read from it. * marks the point of attachment. C20 diacid = O=C(O)CCCCCCCCCCCCCCCCCCC(=O)*; C18 diacid = O=C(O)CCCCCCCCCCCCCCCCC(=O)*; γGlu = O=C(O)[C@H](CCC(=O)[*:2])N[*:1]; Aib = CC(C)(N)C(=O)O

Columns and labels:
[1] = target: T1, human calcitonin receptor (hCTR) (Homo sapiens, UniProt P30988); assay: cAMP production in 1321N1 cells with stable recombinant expression of human calcitonin receptor (hCTR); format: cell-based; conditions: cAMP, 1321N1 cells, assay buffer with 0.1% BSA; read-out: EC50 (pM) hCTR
T1 construct: expressed in transfected cells
T1 sequence (P30988 25-474): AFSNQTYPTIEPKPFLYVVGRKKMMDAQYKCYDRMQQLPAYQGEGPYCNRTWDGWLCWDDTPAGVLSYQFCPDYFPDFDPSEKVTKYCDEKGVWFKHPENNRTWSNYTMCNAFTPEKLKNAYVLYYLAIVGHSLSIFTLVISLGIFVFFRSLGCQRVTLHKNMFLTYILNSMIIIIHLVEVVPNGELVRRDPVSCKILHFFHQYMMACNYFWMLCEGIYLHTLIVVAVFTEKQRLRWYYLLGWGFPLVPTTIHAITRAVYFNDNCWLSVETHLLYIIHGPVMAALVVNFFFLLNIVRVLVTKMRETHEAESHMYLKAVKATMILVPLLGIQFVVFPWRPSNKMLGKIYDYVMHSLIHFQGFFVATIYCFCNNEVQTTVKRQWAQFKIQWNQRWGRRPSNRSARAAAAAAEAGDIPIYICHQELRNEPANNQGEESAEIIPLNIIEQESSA
Procedure, shortened: (§1)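 EC50 values come from 4-parameter logistic fits of HTRF cAMP signal, normalised to maximal calcitonin or amylin effect. Peptides were tested in duplicate for 30 min at RT in IBMX-containing (0.5 mM) BSA/HEPES buffer pH 7.4 on stable 1321N1 (human CTR, AMYR3) or HEK (rat CTR, AMYR3) lines.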

[2] = Pharmacokinetic determination via IV and SC administration in Sprague Dawley rats; conditions: male, rat, plasma, 20 nmol/kg
Description: PK studies were performed to determine the half-life (T1/2) of test peptides. T1/2 describes the time taken for the maximum plasma concentration (Cmax) of a test substance to halve its steady-state concentration when in circulation.
Male SD rats were purchased from Si Bei Fu Laboratory Animal Technology Co. Ltd (China). The animals were 6-8 weeks old with body weights of 200-300 g on the dosing date. The animals were housed in a 12-hour light/12-hour dark cycle environment and were fasted overnight before dosing. The body weight of the animals were recorded before dosing, 24 h and 48 h post dosing . Animals had free access to food and drinks, and the food consumption was quantified every day.
Test articles were administered at 20 nmol/kg. Blood samples were collected from each animal via Jugular vein.
The blood samples were transferred into eppendorf low binding tube containing K2 EDTA. Above 0.150 mL blood were collected at each time point. Blood samples were centrifuged at 4,000 g for 5 minutes at 4° C. to obtain plasma. The plasma samples were stored frozen at −75±15° C. until analysis.
Concentrations of the test articles in the plasma samples were analyzed using a LC-MS/MS method. Data acquisition was performed by LabSolution version 5.89 software (Shimadzu, Kyoto, Japan). Data statistics were performed using Excel 97-2003 software. The pharmacokinetic parameters of test articles were calculated using a non-compartmental approach with Phoenix™ VVinNonlin® 6.1.
The following pharmacokinetic parameters were calculated, whenever possible from the plasma concentration versus time data: • IV administration: T1/2, C0, AUClast, AUCinf, MRTinf, Cl, Vss, Number of Points for Regression. • SC administration: Tmax, Cmax, AUClast, AUCinf, MRTinf, F, Number of Points for Regression.

[3] = Thioflavin T fibrillation assay; format: physicochemical; conditions: ThT fibrillation assay; peptide 1 mg/mL in 25 mM sodium acetate buffer pH 4.0; 6 days at 37 °C with shaking; >144 h = no increase
Procedure, shortened: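 Peptides at 1 mg/mL in 25 mM sodium acetate pH 4.0 with ThT (from 0.25 mM stock), incubated 6 days at 37 °C with intermittent orbital shaking at 500–750 rpm. Fluorescence (ex 444/em 480 nm) read every 30 min; value is average time to a rise in baseline-corrected signal.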

[4] = target: T2, human amylin receptor (calcitonin receptor co-expressed with receptor activity modifying protein, RAMP3) (hAMYR3) (Homo sapiens, UniProt O60896+P30988); assay: cAMP production in 1321N1 cells with stable recombinant expression of human amylin receptor (hAMYR3); format: cell-based; conditions: for Ratio (selectivity hAMYR vs hCTR, ratio of EC50 values at the two receptors): EC50 hCTR / EC50 hAMYR3; for EC50: cAMP, 1321N1 cells, assay buffer with 0.1% BSA, read-out: EC50 (pM) hAMYR3
T2 construct: expressed in transfected cells
T2 sequence (P30988 25-474): T1 sequence (P30988 25-474)
T2 sequence (O60896 24-148 partner): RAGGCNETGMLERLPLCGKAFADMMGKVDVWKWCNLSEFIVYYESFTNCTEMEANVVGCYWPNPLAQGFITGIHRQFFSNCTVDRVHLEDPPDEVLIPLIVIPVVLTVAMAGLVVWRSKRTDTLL
Procedure, shortened: as §1

lean rats = assay: Rat acute food intake study; format: in vivo; conditions: lean male Sprague Dawley rats, 20 nmol/kg subcutaneously
Description: Male Sprague Dawley rats were obtained from Taconic Denmark, ApS at approximately 7 weeks of age. Rats were implanted with a microchip for identification, housed 4/cage with enrichment, free access to food and water, and allowed one week acclimatisation while non-invasive characterization was performed. Rats were on a 12:12 light:dark cycle that switches at 1pm:1am. Food intake was monitored via the HM2 system (Lafayette Instrument) that allows for monitoring in a home cage. As each rat enters an access tunnel to feed, an IR beam is broken, and the implanted microchip is read. Resulting changes to food weight is then assigned to the specific animal. Social order has shown no impact to overall feeding patterns and amounts.
Rats were sorted into groups based on Day -1 body weight and 24-hour accumulated food intake (n=7 per group). On Day 0 rats were weighed, then fasted for 6 hours. Thirty (30) minutes prior to the reintroduction of food, rats were dosed subcutaneously (5 mL/kg) with 20 nmol/kg of test compound or 60 nmol/kg peptide 1 (pramlintide) diluted in an appropriate vehicle, after which food was returned, and lights went out. Automated food intake was monitored for the following 3 days, and rats were weighed once per day.
Food intake per rat was batched into 1-hour intervals and integrated into Gubra's GubraView data management system. Discrete food intake data was exported into MS Excel from which cumulative food intake data was generated. Cumulative food intake data was then transposed into GraphPad Prism (v8.0.1) for analysis of dark period feeding

[5] = target: T3, rat amylin receptor (calcitonin receptor co-expressed with receptor activity modifying protein, RAMP3) (Rat AMYR3) (Rattus norvegicus, UniProt P32214+Q9JJ73); assay: cAMP production in HEK cells with stable recombinant expression of rat amylin receptor (Rat AMYR3); format: cell-based; conditions: assay buffer with 0.1% BSA
T3 construct: expressed in transfected cells
T3 sequence (P32214 25-516): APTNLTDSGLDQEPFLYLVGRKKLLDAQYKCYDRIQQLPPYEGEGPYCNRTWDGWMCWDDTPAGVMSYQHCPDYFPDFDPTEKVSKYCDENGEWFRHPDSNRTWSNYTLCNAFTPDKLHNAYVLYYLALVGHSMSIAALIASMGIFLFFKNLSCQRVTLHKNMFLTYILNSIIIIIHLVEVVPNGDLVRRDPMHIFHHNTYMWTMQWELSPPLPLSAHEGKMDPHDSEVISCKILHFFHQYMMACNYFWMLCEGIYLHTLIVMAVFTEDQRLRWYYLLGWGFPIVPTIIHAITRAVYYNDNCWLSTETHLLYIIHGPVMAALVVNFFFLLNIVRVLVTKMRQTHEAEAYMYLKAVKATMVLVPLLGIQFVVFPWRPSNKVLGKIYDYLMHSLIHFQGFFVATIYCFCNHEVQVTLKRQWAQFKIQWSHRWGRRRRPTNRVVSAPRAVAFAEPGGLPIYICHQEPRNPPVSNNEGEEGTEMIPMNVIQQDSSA
T3 sequence (Q9JJ73 23-147 partner): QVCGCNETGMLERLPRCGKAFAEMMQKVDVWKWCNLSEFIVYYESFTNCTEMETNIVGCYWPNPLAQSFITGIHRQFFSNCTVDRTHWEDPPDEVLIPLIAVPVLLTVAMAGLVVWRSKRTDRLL
Description: (§2) The functional activities of lipidated pramlintide analogue peptides, such as cAMP production, were tested in 1321N1 cell line with stable recombinant expression of human calcitonin receptor (hCTR) or human amylin receptor (calcitonin receptor co-expressed with receptor activity modifying protein, RAMP3) (hAMYR3) or HEK cells with stable recombinant expression of rat calcitonin receptor (rat CTR) or rat amylin receptor (calcitonin receptor co-expressed with receptor activity modifying protein, RAMP3) (Rat AMYR3).
(§3) Cryopreserved cell stock was thawed rapidly in a water-bath, suspended in assay buffer (0.1% BSA (Sigma # A3059) in HBSS (Sigma # H8264) with 25 mM HEPES, pH 7.4 and containing 0.5 mM IB MX (Sigma# 17018)) and spun at 240×g for 5 minutes. Cells were re-suspended in assay buffer at a batch-dependent optimized concentration (e.g. hCTR cells at 0.125×10^5 cells/mL, hAMYR3 cells at 0.125×10^5 cells/mL, rat CTR cells at 1x10^5 cells/mL, rat AMYR3 at 2×10^5 cells/mL).
(§4) The test peptide stock was prepared in DMSO and diluted in assay buffer to reach stated concentrations and transferred in duplicates into a 384-black shallow well microtitre assay plate (Corning # 3676). Cells were added to the assay plate, incubated at room temperature for 30 minutes and the cAMP level measured using cAMP dynamic 2 HTRF kit (Cisbio, Cat # 62AM4PEJ), following the two step protocol as per manufacturer's recommendations. The plates were read on an Envision (Perkin Elmer) using excitation wavelength of 320 nm and emission wavelengths of 620nm & 665 nm.
(§5) Data was transformed to % Delta F as described in the manufacturer's guidelines and analyzed as percent activation of maximal amylin or calcitonin effect by 4-parameter logistic fit to determine EC50 values. The selectivity of a peptide to hAMYR vs hCTR is defined as a ratio of EC50 values at the two receptors.

[6] = target: T4, rat calcitonin receptor (rat CTR) (Rattus norvegicus, UniProt P32214); assay: cAMP production in HEK cells with stable recombinant expression of rat calcitonin receptor (rat CTR); format: cell-based; conditions: assay buffer with 0.1% BSA
T4 construct: expressed in transfected cells
T4 sequence (P32214 25-516): T3 sequence (P32214 25-516)
Description: as §2, §3, §4, §5

Structure (SMILES): CC[C@H](C)[C@H](NC(=O)[C@@H]1CCCN1C(=O)CNC(=O)[C@H](Cc1ccccc1)NC(=O)[C@H](CC(N)=O)NC(=O)C(C)(C)NC(=O)[C@H](CO)NC(=O)[C@H](CO)NC(=O)[C@H](Cc1c[nH]cn1)NC(=O)[C@H](CCCNC(=N)N)NC(=O)[C@H](CC(C)C)NC(=O)[C@H](Cc1ccccc1)NC(=O)[C@H](CC(N)=O)NC(=O)[C@H](C)NC(=O)[C@H](CC(C)C)NC(=O)[C@H](CCCNC(=N)N)NC(=O)[C@H](CCC(N)=O)NC(=O)[C@@H](NC(=O)[C@H](C)NC(=O)[C@@H]1CSSC[C@H](NC(=O)[C@H](CCCCN)NC(=O)[C@@H](N)CCCCNC(=O)CC[C@H](NC(=O)CC[C@H](NC(=O)CCCCCCCCCCCCCCCCC(=O)O)C(=O)O)C(=O)O)C(=O)N[C@@H](CC(N)=O)C(=O)N[C@@H]([C@@H](C)O)C(=O)N[C@@H](C)C(=O)N[C@@H]([C@@H](C)O)C(=O)N1)[C@@H](C)O)C(=O)N[C@@H](CC(C)C)C(=O)N1CCC[C@H]1C(=O)N1CCC[C@H]1C(=O)N[C@H](C(=O)N[C@@H](CC(N)=O)C(=O)N[C@H](C(=O)NCC(=O)N[C@@H](CO)C(=O)N[C@@H](CC(N)=O)C(=O)N[C@H](C(=O)N[C@@H](Cc1ccc(O)cc1)C(N)=O)[C@@H](C)O)C(C)C)[C@@H](C)O [Peptide 66, K(γE-γE-C18diacid)K[CNTATC]ATQRLANFLRHSS(Aib)NFGPILPPTNVGSNTY-amide] (H-K([γGlu-γGlu-C18 diacid])KCNTATCATQRLANFLRHSS[Aib]NFGPILPPTNVGSNTY-NH2; disulfide 3-8)
- EC50 [1]: 7010 pM
- half-life ([2]; iv): 9.4 h
- half-life ([2]; sc): 12.2 h
- Time taken to detect increase in fluorescence intensity [3]: >144 h
- Ratio (selectivity hAMYR vs hCTR, ratio of EC50 values at the two receptors) [4]: 17
- EC50 [4]: 418 pM

Structure (SMILES): CC[C@H](C)[C@H](NC(=O)[C@@H]1CCCN1C(=O)CNC(=O)[C@H](Cc1ccccc1)NC(=O)[C@H](CC(N)=O)NC(=O)[C@H](CC(N)=O)NC(=O)[C@H](CO)NC(=O)[C@H](CO)NC(=O)[C@H](Cc1c[nH]cn1)NC(=O)[C@H](CCCNC(=N)N)NC(=O)[C@H](CC(C)C)NC(=O)[C@H](Cc1ccccc1)NC(=O)[C@H](CCC(=O)O)NC(=O)[C@H](C)NC(=O)[C@H](CC(C)C)NC(=O)[C@H](CCCNC(=N)N)NC(=O)[C@H](CCC(N)=O)NC(=O)[C@@H](NC(=O)[C@H](C)NC(=O)[C@@H]1CSSC[C@H](NC(=O)[C@@H](N)CCCCNC(=O)CC[C@H](NC(=O)CC[C@H](NC(=O)CCCCCCCCCCCCCCCCCCC(=O)O)C(=O)O)C(=O)O)C(=O)N[C@@H](CC(N)=O)C(=O)N[C@@H]([C@@H](C)O)C(=O)N[C@@H](C)C(=O)N[C@@H]([C@@H](C)O)C(=O)N1)[C@@H](C)O)C(=O)N[C@@H](CC(C)C)C(=O)N1CCC[C@H]1C(=O)N1CCC[C@H]1C(=O)N[C@H](C(=O)N[C@@H](CC(N)=O)C(=O)N[C@H](C(=O)NCC(=O)N[C@@H](CO)C(=O)N[C@@H](CC(N)=O)C(=O)N[C@H](C(=O)N[C@@H](Cc1ccc(O)cc1)C(N)=O)[C@@H](C)O)C(C)C)[C@@H](C)O [Peptide 116] (H-K([γGlu-γGlu-C20 diacid])CNTATCATQRLAEFLRHSSNNFGPILPPTNVGSNTY-NH2; disulfide 2-7)
- EC50 [1]: 9560 pM
- Cummulative food intake (% vehicle treated intake) At 12 h (lean rats; at 12 h): 51.7 % vehicle treated intake
- Cummulative food intake (% vehicle treated intake) At 24 h (lean rats; at 24 h): 43.1 % vehicle treated intake
- Cummulative food intake (% vehicle treated intake) At 48 h (lean rats; at 48 h): 50.2 % vehicle treated intake
- Ratio (selectivity hAMYR vs hCTR, ratio of EC50 values at the two receptors) [4]: 8
- EC50 [4]: 1210 pM
- EC50 [5]: 23.7 pM
- EC50 [6]: 9050 pM
